Measurements as given in patent US10278942B2 (PELOTON THERAPEUTICS, INC., priority 2015, dated 2019).

Columns and labels:
[1] = tested on: 786-O-Hif-Luc cells; test: Luciferase Assay (HIF responsive elements reporter); details: read-out: Mean Luciferase EC50 (nM), 786-O-Hif-Luc cells
Procedure: A pool of infected cells were then selected against 2 μg/mL of puromycin (P8833, Sigma) for 10 days followed by limited dilution to select single clones. […] Each concentration was tested in triplicate. After about 24 hours, luciferase activity was determined using ONE-Glo Luciferase Assay Reagent (E6110, Promega) following the manufacturer's recommended procedure. EC50 were calculated using Dotmatics software.

[2] = biological target: T1, HIF-2α HIS TAG-PASB Domain (Homo sapiens, UniProt Q99814); test: HIF-2α Scintillation Proximity Assay (SPA); format: binding; details: read-out: Scintillation Proximity Assay IC50
T1 construct: 100 nM HIF-2α HIS TAG-PASB Domain
Method in brief: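 IC50 values rest on percent inhibition, where the sample signal is scaled between high and low controls. Wells contain about 100 μL: compound dispensed as 2 μL of DMSO solution, 88 μL protein-probe mix and 10 μL of beads.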

T1 sequence (Q99814 240-350 limits assumed): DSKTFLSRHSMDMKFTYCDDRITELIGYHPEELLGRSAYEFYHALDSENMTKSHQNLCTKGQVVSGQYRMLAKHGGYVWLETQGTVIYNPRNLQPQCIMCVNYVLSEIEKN

| Structure (SMILES) | EC50 [1] [nM] | IC50 [2] [nM] |
| --- | --- | --- |
| O=S(=O)(CF)c1ccc(Oc2cc(F)cc(F)c2)c2c1C(O)CC2 (stereo not shown) [Compound 59] | 50 to 249 | < 50 |
| O=S(=O)(c1ccc(Oc2cc(F)cc(F)c2)c2c1C=CC2)C(F)F [Compound 21] | > 1000 | 50 to 249 |
| O=S(=O)(CF)c1ccc(Oc2cccc3sccc23)c2c1C(O)C(F)(F)C2 (stereo not shown) [Compound 242] | 250 to 1000 | 50 to 249 |
| O=S(=O)(c1ccc(OC2CCCC2)c2c1C(O)CC2)C(F)(F)F (stereo not shown) [Compound 603] | > 1000 | 250 to 1000 |
| O[C@H]1c2c(C(F)(F)F)ccc(OCCCF)c2[C@@H](F)C1(F)F [Compound 582] | < 50 | < 50 |
| Cc1c(Oc2cc(F)cc(Cl)c2)ccc(S(=O)(=O)C(F)(F)F)c1Br [Compound 140] | > 1000 | < 50 |
| CS(=O)(=O)c1ccc(O[C@H]2C[C@H](F)C2)c2c1[C@H](O)C(F)(F)[C@H]2F [Compound 737] | > 1000 | 50 to 249 |
| CC1(C)CC[C@@H](O)[C@@H](c2ccc(S(=O)(=O)C(F)(F)F)c3c2CC(F)(F)[C@H]3O)C1 [Compound 545] | > 1000 | 50 to 249 |
| CS(=O)(=O)c1ccc(OC[C@H]2C[C@@H]2C#N)c2c1[C@H](O)C(F)(F)[C@@H]2F [Compound 770] | > 1000 | 250 to 1000 |
| COCCCOc1ccc(S(=O)(=O)C(F)(F)F)c2c1CC(F)(F)C2O (stereo not shown) [Compound 608] | 250 to 1000 | < 50 |
| CCC(COC)Oc1ccc(S(=O)(=O)C(F)(F)F)c2c1CC(F)(F)C2O (stereo not shown) [Compound 747] | 250 to 1000 | 50 to 249 |
| O=S(=O)(c1ccc(O[C@H]2CCCOC2)c2c1[C@H](O)C(F)(F)C2)C(F)(F)F [Compound 731] | 50 to 249 | < 50 |
| O=S(=O)(c1ccc(Oc2cc(F)cc(F)c2)c2c1CC(O)C2)C(F)F (stereo not shown) [Compound 22] | > 1000 | 250 to 1000 |
| O=S(=O)(c1ccc(Oc2ccc(F)c(Cl)c2)c2c1[C@H](O)C(F)(F)C2)C(F)(F)F [Compound 221] | < 50 | < 50 |
| CCc1ccc(S(=O)(=O)C(F)(F)F)c2c1CC(F)(F)C2O (stereo not shown) [Compound 516] | > 1000 | > 1000 |
| N#Cc1cc(F)cc(Oc2ccc(S(N)(=O)=O)c3c2C[C@@H](F)[C@H]3O)c1 [Compound 334] | 50 to 249 | 50 to 249 |
| O=S1(=O)CC(O)c2c1ccc(Oc1cc(F)cc(Cl)c1)c2C(F)F (stereo not shown) [Compound 361] | 250 to 1000 | 50 to 249 |
| N#Cc1cncc(Oc2ccc(S(N)(=O)=O)c3c2CC(F)(F)[C@H]3O)c1 [Compound 253] | > 1000 | > 1000 |
| O=Cc1c(S(=O)(=O)C(F)(F)F)ccc(Oc2cc(F)cc(Cl)c2)c1Cl [Compound 112] | 250 to 1000 | < 50 |
| N#Cc1c(S(=O)(=O)C(F)(F)F)ccc(Oc2cc(F)cc(Cl)c2)c1Cl [Compound 111] | > 1000 | < 50 |
| O=S(=O)(c1ccc(-c2cccnc2)c2c1[C@H](O)C(F)(F)C2)C(F)(F)F [Compound 558] | > 1000 | > 1000 |
| CS(=O)(=O)c1ccc(OCC(F)(F)F)c2c1[C@H](O)C(F)(F)[C@@H]2F [Compound 751] | > 1000 | 50 to 249 |
| NC1CS(=O)(=O)c2ccc(Oc3cc(F)cc(Cl)c3)c(C(F)F)c21 (stereo not shown) [Compound 363] | > 1000 | > 1000 |
| COC(=O)COc1ccc(S(=O)(=O)C(F)(F)F)c2c1CC(F)(F)C2O (stereo not shown) [Compound 639] | > 1000 | > 1000 |
| NC1c2cc(Oc3cc(F)cc(Cl)c3)ccc2S(=O)(=O)C1(F)F (stereo not shown) [Compound 358] | > 1000 | 50 to 249 |
| O=S(=O)(c1ccc(OCC2CC2(F)F)c2c1[C@H](O)C(F)(F)C2)C(F)(F)F (stereo partly shown) [Compound 728] | < 50 | < 50 |
| Cc1c(S(=O)(=O)C(F)F)ccc(Oc2cc(F)cc(Cl)c2)c1C#N [Compound 32] | > 1000 | < 50 |
| N#Cc1cc(F)cc(Oc2ccc(S(=O)(=O)CF)c3c2CC[C@H]3O)c1 [Compound 62] | 50 to 249 | < 50 |
| N#Cc1c(Oc2cc(F)cc(Cl)c2)ccc(S(=O)(=O)C(F)F)c1CO [Compound 35] | > 1000 | > 1000 |

Further lines, results first:

| EC50 [1] [nM] | IC50 [2] [nM] | Structure (SMILES) |
| --- | --- | --- |
| > 1000 | 50 to 249 | O=S(=O)(c1ccc(OCCO)c2c1C(O)C(F)(F)C2)C(F)(F)F (stereo not shown) [Compound 614] |
| > 1000 | 250 to 1000 | N#Cc1cccc(Oc2ccc(S(=O)(=O)C(F)F)c(C#N)c2Cl)c1 [Compound 40] |
| 50 to 249 | 50 to 249 | CS(=O)(=O)c1ccc(Oc2cc(F)cc(C#N)c2)c2c1[C@H](O)C(F)(Cl)C2 (stereo partly shown) [Compound 270] |
| 250 to 1000 | 250 to 1000 | CS(=O)(=O)c1ccc(Oc2cc(F)cc(C#N)c2)c2c1[C@H](O)C(F)(F)[C@H]2F [Compound 293] |
| 50 to 249 | < 50 | N#Cc1cncc(Oc2ccc(S(=N)(=O)C(F)(F)F)c3c2CC(F)(F)[C@H]3O)c1 (stereo partly shown) [Compound 314] |
| 250 to 1000 | 250 to 1000 | O=S(=O)(c1ccc(Oc2cncc(F)c2)c2c1[C@H](O)CC2)C(F)F [Compound 5] |
| 250 to 1000 | 250 to 1000 | Cc1cc(Oc2cc(F)cc(C#N)c2)c2c(c1S(C)(=O)=O)C(O)C(F)(F)C2 (stereo not shown) [Compound 213] |
| 50 to 249 | 50 to 249 | CS(=O)(=NC#N)c1ccc(Oc2cc(F)cc(C#N)c2)c2c1[C@H](O)[C@H](F)C2 (stereo partly shown) [Compound 302] |
| > 1000 | 50 to 249 | Cc1cc(S(=O)(=O)C(F)F)ccc1Oc1cc(F)cc(C#N)c1 [Compound 136] |
| 250 to 1000 | 250 to 1000 | N#Cc1c(Oc2cccc(F)c2)ccc2c1[C@@H](O)CS2(=O)=O [Compound 422] |
| 250 to 1000 | 50 to 249 | C[C@]1(C#N)C[C@H](Oc2ccc(S(=O)(=O)C(F)(F)F)c3c2CC(F)(F)[C@H]3O)C1 [Compound 788] |
| < 50 | < 50 | CS(=O)(=O)c1ccc(Oc2cc(F)cc(Cl)c2)c2c1[C@H](O)C(F)(F)C2 [Compound 160] |
| < 50 | < 50 | C[C@]1(C#N)C[C@@H](Oc2ccc(S(=O)(=O)C(F)(F)F)c3c2CC(F)(F)[C@H]3O)C1 [Compound 789] |
| > 1000 | 250 to 1000 | COc1c(Oc2cc(F)cc(C#N)c2)ccc2c1C(O)C(F)(F)S2(=O)=O (stereo not shown) [Compound 433] |
| > 1000 | 50 to 249 | COC(=O)/C=C/c1c(S(=O)(=O)C(F)(F)F)ccc(Oc2cc(F)cc(C#N)c2)c1C [Compound 147] |
| 50 to 249 | 50 to 249 | O=S(=O)(CF)c1ccc(Oc2cncc(Cl)c2)c2c1[C@H](O)C(F)(F)C2 [Compound 187] |
| > 1000 | 250 to 1000 | CS(=O)(=O)c1ccc(Oc2cc(C#N)cc(C(F)F)c2)c2c1C(O)CC2 (stereo not shown) [Compound 249] |
| 50 to 249 | < 50 | CO[C@H]1C[C@@H](Oc2ccc(S(=O)(=O)C(F)(F)F)c3c2CC(F)(F)[C@H]3O)C1 [Compound 715] |

| EC50 [1] [nM] | IC50 [2] [nM] | Structure (SMILES) |
| --- | --- | --- |
| 250 to 1000 | < 50 | CS(=O)(=O)c1ccc(OC2CC(F)(F)C2)c2c1[C@H](O)[C@H](F)C2 [Compound 585] |
| > 1000 | > 1000 | O=S(=O)(c1ccc(OCc2ccccn2)c2c1C(O)C(F)(F)C2)C(F)(F)F (stereo not shown) [Compound 665] |
| < 50 | < 50 | N#C[C@H]1C[C@H](Oc2ccc(S(=O)(=O)C(F)(F)F)c3c2CC(F)(F)[C@H]3O)C1 [Compound 786] |
| > 1000 | > 1000 | N#CC1(COc2ccc(S(=O)(=O)C(F)(F)F)c3c2CCC3O)CC1 (stereo not shown) [Compound 619] |
| 250 to 1000 | < 50 | CS(=O)(=O)c1ccc(Oc2cc(F)cc(Cl)c2)c(C(F)F)c1C#N [Compound 92] |
| 250 to 1000 | 50 to 249 | CS(=O)(=O)c1ccc(Oc2cc(F)cc(Cl)c2)c2c1C(O)CC2 (stereo not shown) [Compound 90] |
| 50 to 249 | < 50 | COC(C)COc1ccc(S(=O)(=O)C(F)(F)F)c2c1CC(F)(F)C2O (stereo not shown) [Compound 626] |
| 50 to 249 | < 50 | Cc1cc(C#N)cc(Oc2ccc3c(c2C(F)F)[C@@H](O)C(F)(F)S3(=O)=O)c1 [Compound 392] |
| < 50 | < 50 | N#C[C@H]1C[C@@H](Oc2ccc(S(=O)(=O)C(F)(F)F)c3c2CC(F)(F)[C@H]3O)C1 [Compound 787] |
| > 1000 | 250 to 1000 | CS(=N)(=O)c1ccc(Oc2cc(F)cc(F)c2)c2c1C(O)CC2 (stereo not shown) [Compound 190] |
| 50 to 249 | 50 to 249 | C#Cc1c(Oc2cc(F)cc(C#N)c2)ccc2c1C(O)C(F)(F)S2(=O)=O (stereo not shown) [Compound 409] |
| 250 to 1000 | 50 to 249 | CC1(O)c2c(ccc(Oc3cc(F)cc(F)c3)c2Br)S(=O)(=O)C1(F)F (stereo not shown) [Compound 444] |
| > 1000 | < 50 | CS(=O)(=O)c1ccc(Sc2cc(F)cc(Cl)c2)c2c1[C@H](O)C(F)(F)[C@@H]2F [Compound 491, (1S,3R)-4-((3-chloro-5-fluorophenyl)thio)-2,2,3-trifluoro-7-(methylsulfonyl)-2,3-dihydro-1H-inden-1-ol] |
| 250 to 1000 | < 50 | O=Cc1c(S(=O)(=O)C(F)(F)F)ccc(Oc2cc(F)cc(Cl)c2)c1Br [Compound 101] |
| 50 to 249 | < 50 | O=S(=O)(c1ccc(Oc2ccc(F)c(Cl)c2)c2c1[C@H](O)C(F)(F)C2)C(F)F [Compound 26] |
| 50 to 249 | 50 to 249 | CC1(C)CC[C@@H](O)[C@H](c2ccc(S(=O)(=O)C(F)(F)F)c3c2CC(F)(F)[C@H]3O)C1 [Compound 547] |
| 250 to 1000 | < 50 | O=S(=O)(c1ccc(Oc2cc(F)cc(F)c2)c(Cl)c1CO)C(F)F [Compound 168] |
| < 50 | < 50 | N#Cc1cccc(Oc2ccc3c(c2Br)[C@@H](O)C(F)(F)S3(=O)=O)c1 [Compound 430] |
